Read-outs that look alike come from different tables or passages of the source.
What was measured:
[1] = system: HeLa cells expressing KRAS G12D; test: Live-cell imaging of cell fate, HeLa KRAS G12D; assay type: cell-based, human; details: Poloppin at GI50 dose, 3% in DMSO controls
Description: Five x10^4 cells were seeded on each well of 4-well coverglass Lab-Tek chambers in a volume of 800 μl. HeLa-G12D cells were induced with Doxycycline (Dox) 24h before seeding and kept in Dox for the rest of the experiment.
For live cell imaging analysis image sequences were viewed using ImageJ software and cell fate was analysed manually. Time spent in mitosis for different groups was compared with a Kruskal-Wallis test and Dunn's multiple comparison correction.

HeLa = test: GI50 for cell killing, HeLa; assay type: cell-based; details: Homo sapiens
HCT116 wt = test: Viability of drug-sensitive parental HCT116 cells; assay type: cell-based; details: Homo sapiens, HCT-116, 72 h
Description: Viability is represented as percentage survival normalised to DMSO control. […] PCR reactions were carried out using Amplitaq Gold polymerase (Applied Biosystems N8080241) with a 25-cycle programme. […] Prepared samples were submitted for next generation sequencing using MiSeq Nano run with Nextera XT library preparation. Sequencing and subsequent bioinformatics were performed by Cambridge Genomic Services (University Of Cambridge).

Panc 02.03 = test: Cell viability (SRB), Panc 02.03; assay type: cell-based; details: Homo sapiens, Panc 02.03, 72 h
Description: SW48 Parental, SW48 G12D, Panc-1, HPAF-II, Panc 02.03 and Panc 05.04 cell lines were seeded overnight at 5000 cells per well in a 96 well plate in recommended media (ATCC). Compounds were added the following day and viability was measured at 72h using the sulforhodamine B (SRB) colorimetric assay as follows. Cells were fixed by replacing media with 1% v/v Trichloroacetic Acid (TCA) (Sigma-Aldrich) at 4°C and incubated for 1h also at 4°C. Wells were washed thoroughly with copious amounts of deionised water before staining with Sulforhodamine B (SRB) (Sigma-Aldrich) solution (0.057% w/v in 1% v/v Acetic Acid (VWR)) for 30 min. Stain was aspirated and wells washed with several changes of 1% v/v Acetic Acid until unbound stain was removed, before air-drying. Bound stain was solubilized with 100μl / well 10mM Tris (pH 8.0) (Trizma Base (121.1) Sigma-Aldrich) with agitation for 10 min. Fluorescence intensity was recorded at Ex540nm / Em590nm using a BMG Pherastar Plus plate reader ([Vichai and Kirtikara, 2006]).
Pancreatic organoids were extracted and cultured as detailed above ([Boj et al., 2015]). In brief, pancreatic organoids were seeded at 600 cells per well in a 96 well plate and allowed to grow for 7 days with media replenishment on the 3rd day. Full-grown organoids were then treated with compounds for 72h and viability determined using CellTitre Glo 3D assay (Promega). For viability assays with c-MET siRNA, cells were reverse transfected in a 6 cm dish using Dharmafect 1 (GE Dharmacon) per manufacturer’s instructions. On the following day, cells were trypsinised and plated onto 96 well plates or 6 well plates. The 96 well plates were treated with a dose range of compounds or DMSO, and viability was determined via SRB colorimetric assay. […]
Cells were reverse-transfected with 50nM (SW48 parental, SW48 KRAS G12D and Panc-1) or 25nM (HeLa Flp-In T-REx parental cells) siRNA using Dharmafect (GE Dharmacon) as manufacturer’s recommendations. […] Viability was assessed after 72 hrs, with the SRB colorimetric assay. Knockdown efficiencies were determined by Western blot or RT-qPCR. […]

PLK1 PBD = PLK1 PBD (Homo sapiens, UniProt P53350); test: Isothermal titration calorimetry; assay type: binding; set-up: In all titrations, PBDaa345-603 protein was used at 25 μM; GST (N, cleaved yes); made in house; host or cells: E. coli C41; details: ITC, 20 °C
Description: In all titrations, PBDaa345-603 protein was used at 25 μM and buffered in HEPES (50 mM, pH 7.4), NaCl (200 mM), and DTT (1mM). Protein was diluted into buffer with DMSO at 5% (v/v). Poloppin was prepared by diluting from DMSO stock into the same buffer containing DMSO at 5% (v/v). Great care was taken to match the concentration of DMSO in the ligand and protein samples as closely as possible. In a typical experiment, protein (25 μM) was loaded in the sample cell, and a total of 20 injections of 8μL were made at 2 min intervals from a 200 μL syringe rotating at 1000 rpm and loaded with ligand solution (0.5 mM). […] The thermodynamic parameters were obtained by fitting the data to a single-site binding model with a stoichiometry of 1. ITC experiments were performed at 20 °C with a MicroCal ITC200 instrument, and all data were analysed with the software implemented in Origin (version 7) ([Scott et al., 2015]).

hERG ion channel = hERG ion channel (Homo sapiens, UniProt Q12809); test: hERG ion channel activity
[2] = Stability in mouse hepatocytes; assay type: in vitro ADME

Chain of hERG ion channel (Q12809 whole entry): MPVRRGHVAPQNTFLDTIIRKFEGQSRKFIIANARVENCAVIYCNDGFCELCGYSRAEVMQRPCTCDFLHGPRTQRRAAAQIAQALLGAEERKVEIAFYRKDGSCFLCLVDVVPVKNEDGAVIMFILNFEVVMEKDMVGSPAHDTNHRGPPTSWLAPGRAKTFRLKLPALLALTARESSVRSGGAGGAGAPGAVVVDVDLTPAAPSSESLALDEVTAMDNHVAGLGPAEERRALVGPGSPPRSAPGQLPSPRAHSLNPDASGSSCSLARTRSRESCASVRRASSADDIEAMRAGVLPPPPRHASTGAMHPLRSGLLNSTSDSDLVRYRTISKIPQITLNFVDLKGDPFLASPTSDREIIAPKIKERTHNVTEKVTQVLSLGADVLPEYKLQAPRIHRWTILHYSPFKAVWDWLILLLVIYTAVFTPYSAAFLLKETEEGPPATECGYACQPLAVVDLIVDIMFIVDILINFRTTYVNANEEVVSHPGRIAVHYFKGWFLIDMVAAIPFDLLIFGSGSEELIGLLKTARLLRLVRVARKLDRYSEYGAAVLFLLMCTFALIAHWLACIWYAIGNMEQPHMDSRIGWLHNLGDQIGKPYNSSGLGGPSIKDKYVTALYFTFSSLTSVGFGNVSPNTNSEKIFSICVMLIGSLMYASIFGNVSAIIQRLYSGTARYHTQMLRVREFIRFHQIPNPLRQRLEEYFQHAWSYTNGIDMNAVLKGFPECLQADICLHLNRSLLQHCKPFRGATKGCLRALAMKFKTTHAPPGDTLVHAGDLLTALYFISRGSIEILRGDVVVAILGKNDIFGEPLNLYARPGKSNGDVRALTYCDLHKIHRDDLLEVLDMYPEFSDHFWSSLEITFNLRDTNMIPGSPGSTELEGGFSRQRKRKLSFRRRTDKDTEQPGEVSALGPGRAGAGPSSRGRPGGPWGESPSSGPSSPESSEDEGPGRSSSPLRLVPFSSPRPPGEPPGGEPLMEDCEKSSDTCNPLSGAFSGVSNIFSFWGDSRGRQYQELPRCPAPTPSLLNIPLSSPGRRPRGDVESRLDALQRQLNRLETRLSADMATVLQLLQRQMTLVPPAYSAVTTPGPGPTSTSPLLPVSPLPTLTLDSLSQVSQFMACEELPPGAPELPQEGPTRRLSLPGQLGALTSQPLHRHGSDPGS
Chain of PLK1 PBD (P53350 345-603): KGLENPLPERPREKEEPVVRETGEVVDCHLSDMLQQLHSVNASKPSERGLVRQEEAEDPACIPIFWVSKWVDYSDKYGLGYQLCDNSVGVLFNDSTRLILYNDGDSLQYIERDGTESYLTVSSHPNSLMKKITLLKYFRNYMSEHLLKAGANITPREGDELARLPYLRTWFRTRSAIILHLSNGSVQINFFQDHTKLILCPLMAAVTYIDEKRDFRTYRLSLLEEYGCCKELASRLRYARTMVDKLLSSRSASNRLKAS

For `O=C(O)CCc1ccc(-c2ccc(Br)cc2)n1-c1ccccc1C(F)(F)F` [Poloppin], the “frequency of death in mitosis” value [1] was 36%, the GI50 (HeLa) was 10 µM and the GI50 (HCT116 wt) was 11.1 µM. The EC50 (Panc 02.03; read-out: EC50, % survival, Panc 02.03, All Stars control siRNA, 72 h) was 47.1 ± 1.03 µM, the EC50 (Panc 02.03; read-out: EC50, % survival, Panc 02.03, siMET, 72 h) was 8.7 ± 1.16 µM and the Kd (PLK1 PBD) was 29.5 µM.

For `CN(C)CCNC(=O)c1ccc(-c2ccc(-c3ccc(Cl)cc3)n2-c2ccccc2C(F)(F)F)cc1` [Poloppin-II], the “activity against the hERG ion channel” value (hERG ion channel) was “inactive”, the half-life [2] was 1.28 h and the hepatocyte CLint [2] was 18 µL/min/1e6 cells.

Reference: paper PMC5563081, “Modulating Protein-Protein Interactions of the Mitotic Polo-like Kinases to Target Mutant KRAS” (Cell Chemical Biology, 2017)
